pEC50, pKi: −log10 of the molar value. Where two headings read alike, the source gives them in different places.
Key:
[1] = biological target: rat CB1 receptors (HEK cells) (Rattus norvegicus (Rat), UniProt P20272); assay: rat CB1 cyclase functional assay (HitHunter cAMP); assay type: cell-based
Experimental: The cyclase functional assays were performed using the HitHunter™ cAMP assay kit from DiscoveRx (Fremont, Calif.) according to vendor's protocol. Briefly, HEK cells expressing CB2 or CB1 receptors (rat or human) were detached using cell dissociation buffer (Invitrogen, Carlsbad, Calif.), dispersed and placed in suspension at 10,000 cells per well in 96 well plates prior to the assay. Cell suspensions were incubated at 37° C. for 20 min with variable concentrations of test ligands and or 10 μM CP 55,940-positive control in the presence of a fixed concentration of forskolin (18 μM for rat CB2 and 37 μM for rat CB1) in Dulbescco's phosphate-buffered saline (Invitrogen, Carlsbad, Calif.) supplemented with bovine serum albumin (0.01% final concentration). The reactions were terminated by the addition of lysis buffer and the luminescence was detected following the procedure according to the manufacturer's instructions. EC50 values were calculated using sigmoidal dose-response curve fitting from Prism (GraphPad).

human CB2 receptors = human CB2 receptors (Homo sapiens (Human), UniProt P34972); assay: human CB2 radioligand binding assay ([3H]CP 55,940 competition)
human CB2 receptors, sequence (P34972 whole entry): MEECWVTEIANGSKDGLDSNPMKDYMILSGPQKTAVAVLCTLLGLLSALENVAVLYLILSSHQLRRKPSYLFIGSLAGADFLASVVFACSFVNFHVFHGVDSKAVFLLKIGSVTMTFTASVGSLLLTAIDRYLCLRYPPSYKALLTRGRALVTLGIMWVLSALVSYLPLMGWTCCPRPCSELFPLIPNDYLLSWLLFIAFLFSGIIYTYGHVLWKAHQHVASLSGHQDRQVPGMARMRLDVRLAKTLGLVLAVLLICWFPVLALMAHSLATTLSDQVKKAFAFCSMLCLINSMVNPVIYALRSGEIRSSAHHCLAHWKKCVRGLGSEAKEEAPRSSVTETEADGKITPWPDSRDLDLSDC
Experimental: (§1) The CB1 and CB2 radioligand binding assays described herein are utilized to ascertain the affinity of compounds of the present application for binding to CB2 relative to CB1 receptors.
HEK293 cells stably expressing human CB2 receptors were grown until a confluent monolayer was formed. Briefly, the cells were harvested and homogenized in TE buffer (50 mM Tris-HCl, 1 mM MgCl2, and 1 mM EDTA) using a polytron for 2×10 second bursts in the presence of protease inhibitors, followed by centrifugation at 45,000×g for 20 minutes. The final membrane pellet was re-homogenized in storage buffer (50 mM Tris-HCl, 1 mM MgCl2, and 1 mM EDTA and 10% sucrose) and frozen at −78° C. until used. Saturation binding reactions were initiated by the addition of membrane preparation (protein concentration of 5 μg/well for human CB2) into wells of a deep well plate containing [^3H]CP 55,940 (120 Ci/mmol, a nonselective CB agonist commercially available from Tocris) in assay buffer (50 mM Tris, 2.5 mM EDTA, 5 mM MgCl2, and 0.5 mg/mL fatty acid free BSA, pH 7.4). After 90 min incubation at 30° C., binding reaction was terminated by the addition of 300 μL/well of cold assay buffer followed by rapid vacuum filtration through a UniFilter-96 GF/C filter plates (pre-soaked in 1 mg/mL BSA for 2 hours). The bound activity was counted in a TopCount using Microscint-20. Saturation experiments were conducted with twelve concentrations of [^3H]CP 55,940 ranging from 0.01 to 8 nM. Competition experiments were conducted with 0.5 nM [^3H]CP 55,940 and five concentrations (0.01 nM to 10 μM) of displacing ligands. The addition of 10 μM unlabeled CP 55,940 (Tocris, Ellisville, Mo.) was used to assess nonspecific binding.

rat CB2 receptors = rat CB2 receptors (Rattus norvegicus (Rat), UniProt Q9QZN9); assay: rat CB2 radioligand binding assay ([3H]CP 55,940 competition); conditions: HEK293 membranes, 0.5 nM [3H]CP 55,940
Experimental: as §1
HEK293 cells stably expressing rat CB2 receptors were grown until a confluent monolayer was formed. Briefly, the cells were harvested and homogenized in TE buffer (50 mM Tris-HCl, 1 mM MgCl2, and 1 mM EDTA) using a polytron for 2×10 second bursts in the presence of protease inhibitors, followed by centrifugation at 45,000×g for 20 minutes. The final membrane pellet was re-homogenized in storage buffer (50 mM Tris-HCl, 1 mM MgCl2, and 1 mM EDTA and 10% sucrose) and frozen at −78° C. until used. Saturation binding reactions were initiated by the addition of membrane preparation (protein concentration of 20 μg/well for rat CB2) into wells of a deep well plate containing [^3H]CP 55,940 (120 Ci/mmol, a nonselective CB agonist commercially available from Tocris) in assay buffer (50 mM Tris, 2.5 mM EDTA, 5 mM MgCl2, and 0.5 mg/mL fatty acid free BSA, pH 7.4). After 45 min incubation at 30° C., binding reaction was terminated by the addition of 300 μl/well of cold assay buffer followed by rapid vacuum filtration through a UniFilter-96 GF/C filter plates (pre-soaked in 1 mg/mL BSA for 2 hours). The bound activity was counted in a TopCount using Microscint-20. Saturation experiments were conducted with twelve concentrations of [^3H]CP 55,940 ranging from 0.01 to 8 nM. Competition experiments were conducted with 0.5 nM [^3H]CP 55,940 and five concentrations of displacing ligands selected from the range of 0.01 nM to 10 μM. The addition of 10 μM unlabeled CP 55,940 (Tocris, Ellisville, Mo.) was used to assess nonspecific binding.

[2] = HEK cells, forskolin 37 μM, read-out: rCB1 cyclase (EC50)
[3] = HEK293 membranes, 0.5 nM [3H]CP 55,940, read-out: human CB2 (Ki)

rat CB1 receptors (HEK cells), sequence (P20272 whole entry): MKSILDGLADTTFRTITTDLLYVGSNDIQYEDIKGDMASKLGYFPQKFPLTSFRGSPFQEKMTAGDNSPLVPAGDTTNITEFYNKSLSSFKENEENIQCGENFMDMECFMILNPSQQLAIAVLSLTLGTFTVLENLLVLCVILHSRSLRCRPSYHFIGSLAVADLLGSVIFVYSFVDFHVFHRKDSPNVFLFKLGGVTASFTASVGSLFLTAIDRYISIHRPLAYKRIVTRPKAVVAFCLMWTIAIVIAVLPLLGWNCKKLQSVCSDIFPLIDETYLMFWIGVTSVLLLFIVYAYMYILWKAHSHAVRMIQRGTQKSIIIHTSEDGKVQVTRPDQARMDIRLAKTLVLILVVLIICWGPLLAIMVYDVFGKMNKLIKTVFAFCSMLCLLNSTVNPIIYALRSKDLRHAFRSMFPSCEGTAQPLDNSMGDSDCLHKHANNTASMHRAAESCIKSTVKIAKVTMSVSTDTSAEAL

SMILES | pEC50 [1, 2] | pKi (human CB2 receptors; [3]) | pKi (rat CB2 receptors) | pKi (human CB2 receptors) | pEC50 [1]
CC(C)(C)NNc1ccc(C(F)(F)F)cc1C(=O)/N=c1\sc(C(C)(C)C)cn1C[C@H]1CCCO1 [Example 39, 2-(2-tert-butylhydrazino)-N-[(2Z)-5-tert-butyl-3-[(2R)-tetrahydrofuran-2-ylmethyl]-1,3-thiazol-2(3H)-ylidene]-5-(trifluoromethyl)benzamide] | < 4.57 | 8.43 | 8.77 | – | –
CC(C)(C)OC(=O)NNc1ccc(C(F)(F)F)cc1C(=O)/N=c1\sc(C(C)(C)C)cn1C[C@H]1CCCO1 [Example 40, tert-butyl 2-[2-({[(2Z)-5-tert-butyl-3-[(2R)-tetrahydrofuran-2-ylmethyl]-1,3-thiazol-2(3H)-ylidene]amino}carbonyl)-4-(trifluoromethyl)phenyl]hydrazinecarboxylate] | – | – | 9.52 | 9.40 | –
CC(=O)N1CCC[C@H]1COc1ccc(C(F)(F)F)cc1C(=O)/N=c1\sc(C(C)(C)C)cn1C[C@H]1CCCO1 [Example 47, 2-{[(2S)-1-acetylpyrrolidin-2-yl]methoxy}-N-[(2Z)-5-tert-but 1-3[(2R)-tetrahydrofuran-2-ylmethyl]-1,3-thiazol-2(3H)-ylidene]-5-(trifluoromethyl)benzamide] | – | 6.97 | 7.62 | – | –
CN1CCC[C@H]1CNc1ccc(C(F)(F)F)cc1C(=O)/N=c1\sc(C(C)(C)C)cn1C[C@H]1CCCO1 [Example 55, N-[(2Z)-5-tert-butyl-3-[(2R)-tetrahydrofuran-2-ylmethyl]-1,3-thiazol-2(3H)-ylidene]-2-({[(2S)-1-methylpyrrolidin-2-yl]methyl}amino)-5-(trifluoromethyl)benzamide] | – | 7.44 | 8.09 | – | –
CN1CCC[C@H]1COc1ccc(C(F)(F)F)cc1C(=O)/N=c1\scc(C(C)(C)C)n1C[C@H]1CCCO1 [Example 57, N-[(2Z)-4-tert-butyl-3-[(2R)-tetrahydrofuran-2-ylmethyl]-1,3-thiazol-2(3H)-ylidene]-2-{[(2S)-1-methylpyrrolidin-2-yl]methoxy}-5-(trifluoromethyl)benzamide] | – | 6.54 | 7.82 | – | –
CC(C)(C)NOc1ccc(C(F)(F)F)cc1C(=O)/N=c1\sc(C(C)(C)C)cn1C[C@H]1CCCO1 [Example 65, 2-[(tert-butylamino)oxy]-N-[(2Z)-5-tert-butyl-3-[(2R)-tetrahydrofuran-2-ylmethyl]-1,3-thiazol-2(3H)-ylidene]-5-(trifluoromethyl)benzamide] | – | 8.74 | 9.10 | – | < 4.57
Cn1cncc1COc1ccc(C(F)(F)F)cc1C(=O)/N=c1\sc(C(C)(C)C)cn1C[C@H]1CCCO1 [Example 67, N-[(2Z)-5-tert-butyl-3-[(2R)-tetrahydrofuran-2-ylmethyl]-1,3-thiazol-2(3H)-ylidene]-2-[(1-methyl-1H-imidazol-5-yl)methoxy]-5-(trifluoromethyl)benzamide] | < 4.57 | 6.94 | 7.89 | – | –
CC(C)(C)/C(COc1ccc(C(F)(F)F)cc1C(=O)/N=c1\sc(C(C)(C)C)cn1C[C@H]1CCCO1)=N/O [Example 70, N-[(2Z)-5-tert-butyl-3-[(2R)-tetrahydrofuran-2-ylmethyl]-1,3-thiazol-2(3H)-ylidene]-2-{[(2Z)-2-(hydroxyimino)-3,3-dimethylbutyl]oxy}-5-(trifluoromethyl)benzamide] | – | 7.92 | 8.09 | – | < 4.57
CC(C)(C)c1cn(C[C@H]2CCCO2)/c(=N/C(=O)c2cc(C(F)(F)F)ccc2OCC(C)(C)n2cccc2)s1 [Example 74, N-[(2Z)-5-tert-butyl-3-[(2R)-tetrahydrofuran-2-ylmethyl]-1,3-thiazol-2(3H)-ylidene]-2-[2-methyl-2-(1H-pyrrol-1-yl)propoxy]-5-(trifluoromethyl)benzamide] | – | 7.47 | 8.18 | – | –
CC(=O)NOc1ccc(C(F)(F)F)cc1C(=O)/N=c1\sc(C(C)(C)C)cn1C[C@H]1CCCO1 [Example 75, 2-[(acetylamino)oxy]-N-[(2Z)-5-tert-butyl-3-[(2R)-tetrahydrofuran-2-ylmethyl]-1,3-thiazol-2(3H)-ylidene]-5-(trifluoromethyl)benzamide] | – | 8.92 | 8.60 | – | –
COCCn1cc(C(C)(C)C)s/c1=N\C(=O)c1cc(C(F)(F)F)ccc1ONC(C)(C)C [Example 76, 2-[(tert-butylamino)oxy]-N-[(2Z)-5-tert-butyl-3-(2-methoxyethyl)-1,3-thiazol-2(3H)-ylidene]-5-(trifluoromethyl)benzamide] | – | – | 8.28 | 7.70 | –
CC(CN1CCC[C@H]1COc1ccc(C(F)(F)F)cc1C(=O)/N=c1\sc(C(C)(C)C)cn1C[C@H]1CCCO1)=NO [Example 77, N-[(2Z)-5-tert-butyl-3-[(2R)-tetrahydrofuran-2-ylmethyl]-1,3-thiazol-2(3H)-ylidene]-2-({(2S)-1-[2-(hydroxyimino)propyl]pyrrolidin-2-yl}methoxy)-5-(trifluoromethyl)benzamide] | – | 7.07 | 7.19 | – | –
CCN(CC)Oc1ccc(C(F)(F)F)cc1C(=O)/N=c1\sc(C(C)(C)C)cn1C[C@H]1CCCO1 [Example 78, N-[(2Z)-5-tert-butyl-3-[(2R)-tetrahydrofuran-2-ylmethyl]-1,3-thiazol-2(3H)-ylidene]-2-[(diethylamino)oxy]-5-(trifluoromethyl)benzamide] | – | 7.66 | 8.34 | – | –
CC(C)NOc1ccc(C(F)(F)F)cc1C(=O)/N=c1\sc(C(C)(C)C)cn1C[C@H]1CCCO1 [Example 79, N-[(2Z)-5-tert-butyl-3-[(2R)-tetrahydrofuran-2-ylmethyl]-1,3-thiazol-2(3H)-ylidene]-2-[(isopropylamino)oxy]-5-(trifluoromethyl)benzamide] | – | 9.52 | 9.30 | – | –
C[C@@H](O)COc1ccc(C(F)(F)F)cc1C(=O)/N=c1\sc(C(C)(C)C)cn1C[C@H]1CCCO1 [Example 81, N-[(2Z)-5-tert-butyl-3-[(2R)-tetrahydrofuran-2-ylmethyl]-1,3-thiazol-2(3H)-ylidene]-2-{[(2R)-2-hydroxypropyl]oxy}-5-(trifluoromethyl)benzamide] | – | 8.96 | 9.30 | – | –
CC(COc1ccc(C(F)(F)F)cc1C(=O)/N=c1\sc(C(C)(C)C)cn1C[C@H]1CCCO1)=NOC(C)(C)C [Example 82] | – | 8.31 | 8.77 | – | –
CC(C)(C)c1cn(C[C@H]2CCCO2)/c(=N/C(=O)c2cc(C(F)(F)F)ccc2ON=C2CCCC2)s1 [Example 83, N-[(2Z)-5-tert-butyl-3-(2R)-(tetrahydrofuran-2-ylmethyl)-1,3-thiazol-2(3H)-ylidene]-2-[(cyclopentylideneamino)oxy]-5-(trifluoromethyl)benzamide] | – | – | 8.92 | 9.30 | –
CC(=O)C(C)=NOc1ccc(C(F)(F)F)cc1C(=O)/N=c1\sc(C(C)(C)C)cn1C[C@H]1CCCO1 [Example 84, N-[(2Z)-5-tert-butyl-3-[(2R)-tetrahydrofuran-2-ylmethyl]-1,3-thiazol-2(3H)-ylidene]-2-({[1-methyl-2-oxopropylidene]amino}oxy)-5-(trifluoromethyl)benzamide] | – | 8.48 | 8.62 | – | –
